Values of other authors, collected in patent US20100216641A1, “Low VOC and Stable Plant Growth Regulator Liquid and Granule Compositions” (priority 2009, published 2010).

Conditions: at 25° C.

Compound: O=C(Nc1ccccc1)Nc1ccnc(Cl)c1 [CPPU, forchlorfenuron]
- water solubility: 39 ppm
